Holding throughout (type): in vivo
Assay [1] has as its system VIOTR. Briefly: Post-emergence herbicidal action against harmful plants. As for the experimental part: (§1) Seeds of monocotyledonous and dicotyledonous weed and crop plants are placed in sandy loam in wood-fibre pots, covered with soil and cultivated in a greenhouse under good growth conditions. 2 to 3 weeks after sowing, the test plants are treated at the one-leaf stage. The compounds according to the invention, formulated in the form of wettable powders (WP) or as emulsion concentrates (EC), are then sprayed as aqueous suspension or emulsion at a water application rate of 600 to 800 I/ha (converted) with the addition of 0.2% of wetting agent onto the green parts of the plants. After the test plants have been kept in the greenhouse under optimum growth conditions for about 3 weeks, the activity of the preparations is rated visually in comparison to untreated controls (herbicidal activity in percent (%): 100% activity=the plants have died, 0% activity=control plants, —=not tested).

In assay [2] the test system is Echinochloa crus galli. Described as above. To be noted: 504 h, dosage 80 g/ha, visual rating after about 3 weeks (Table E), read-out: Herbicidal action against ECHCG.
From the text: as §1, with “The abbreviations used in the tables below denote: • ABUTH Abutilon theophrasti • AMARE Amaranthus retroflexus • ECHCG Echinochloa crus galli • PHBPU Phartoitis purpureum • STEME Stellaria media • ALOMY Alopecurus myosuroides • AVEFA Avena fatua • MATIN Matricaria inodora • POLCO Fallopia convolvulus • VERPE Veronica persica 1. Pre-emergence Herbicidal Action Against Harmful Plants Seeds” for “Seeds”

In assay [3] the test system is Phartoitis purpureum. The assay is described as above. Conditions: 504 h, read-out: Herbicidal action against PHPBU.
From the text: as §1, with “The abbreviations used in the tables below denote: • ABUTH Abutilon theophrasti • AMARE Amaranthus retroflexus • ECHCG Echinochloa crus galli • PHBPU Phartoitis purpureum • STEME Stellaria media • ALOMY Alopecurus myosuroides • AVEFA Avena fatua • MATIN Matricaria inodora • POLCO Fallopia convolvulus • VERPE Veronica persica 1. Pre-emergence Herbicidal Action Against Harmful Plants Seeds” for “Seeds”

A further assay deals with Fallopia convolvulus. The assay is described as above. To be noted: 504 h, dosage 80 g/ha, visual rating after about 3 weeks (Table E), read-out: Herbicidal action against POLCO.
From the text: as §1, with “The abbreviations used in the tables below denote: • ABUTH Abutilon theophrasti • AMARE Amaranthus retroflexus • ECHCG Echinochloa crus galli • PHBPU Phartoitis purpureum • STEME Stellaria media • ALOMY Alopecurus myosuroides • AVEFA Avena fatua • MATIN Matricaria inodora • POLCO Fallopia convolvulus • VERPE Veronica persica 1. Pre-emergence Herbicidal Action Against Harmful Plants Seeds” for “Seeds”

The subject of assay [4] is Matricaria inodora. The description is as above. To be noted: Tripleurospermum inodorum, 504 h, read-out: Herbicidal action against MATIN.
From the text: as §1, with “The abbreviations used in the tables below denote: • ABUTH Abutilon theophrasti • AMARE Amaranthus retroflexus • ECHCG Echinochloa crus galli • PHBPU Phartoitis purpureum • STEME Stellaria media • ALOMY Alopecurus myosuroides • AVEFA Avena fatua • MATIN Matricaria inodora • POLCO Fallopia convolvulus • VERPE Veronica persica 1. Pre-emergence Herbicidal Action Against Harmful Plants Seeds” for “Seeds”

A further assay relates to SETVI. Briefly: Pre-emergence herbicidal action against harmful plants. Conditions: dosage 320 g/ha, visual assessment after 3 weeks (Table C). The source says:
(§2) Seeds of monocotyledonous and dicotyledonous weed plants and crop plants are placed in wood-fibre pots in sandy loam and covered with soil. The compounds according to the invention and the compounds known from the prior art, formulated in the form of wettable powders (WP) or as emulsion concentrates (EC), are then applied as aqueous suspension or emulsion at a water application rate of 600 to 800 I/ha (converted) with the addition of 0.2% of wetting agent to the surface of the covering soil. After the treatment, the pots are placed in a greenhouse and kept under good growth conditions for the test plants. The visual assessment of the damage to the test plants is carried out after a trial period of 3 weeks by comparison with untreated controls (herbicidal activity in percent (%): 100% activity=the plants have died, 0% activity=like control plants, —=not tested). The results of comparative table A show the compounds according to the invention have a higher herbicidal activity than the compounds of the greatest structural similarity known from the closest prior art.

The subject of assay [5] is VIOTR. Described as above.
From the text: as §2

Assay [6] relates to Veronica persica. Described as above. To be noted: 504 h, dosage 320 g/ha, visual assessment after 3 weeks (Table A), read-out: Herbicidal action against VERPE.
From the text: as §2, with “The abbreviations used in the tables below denote: • ABUTH Abutilon theophrasti • AMARE Amaranthus retroflexus • ECHCG Echinochloa crus galli • PHBPU Phartoitis purpureum • STEME Stellaria media • ALOMY Alopecurus myosuroides • AVEFA Avena fatua • MATIN Matricaria inodora • POLCO Fallopia convolvulus • VERPE Veronica persica 1. Pre-emergence Herbicidal Action Against Harmful Plants Seeds” for “Seeds”

The next assay concerns Abutilon theophrasti. The description is as above.
From the text: as §2, with “The abbreviations used in the tables below denote: • ABUTH Abutilon theophrasti • AMARE Amaranthus retroflexus • ECHCG Echinochloa crus galli • PHBPU Phartoitis purpureum • STEME Stellaria media • ALOMY Alopecurus myosuroides • AVEFA Avena fatua • MATIN Matricaria inodora • POLCO Fallopia convolvulus • VERPE Veronica persica 1. Pre-emergence Herbicidal Action Against Harmful Plants Seeds” for “Seeds”

Assay [7] relates to Echinochloa crus galli. The assay is described as above. Conditions: dosage 320 g/ha.
From the text: as §2, with “The abbreviations used in the tables below denote: • ABUTH Abutilon theophrasti • AMARE Amaranthus retroflexus • ECHCG Echinochloa crus galli • PHBPU Phartoitis purpureum • STEME Stellaria media • ALOMY Alopecurus myosuroides • AVEFA Avena fatua • MATIN Matricaria inodora • POLCO Fallopia convolvulus • VERPE Veronica persica 1. Pre-emergence Herbicidal Action Against Harmful Plants Seeds” for “Seeds”

The test system of assay [8] is Phartoitis purpureum. The description is as above. To be noted: dosage 320 g/ha, visual assessment after 3 weeks (Table C).
From the text: as §2, with “The abbreviations used in the tables below denote: • ABUTH Abutilon theophrasti • AMARE Amaranthus retroflexus • ECHCG Echinochloa crus galli • PHBPU Phartoitis purpureum • STEME Stellaria media • ALOMY Alopecurus myosuroides • AVEFA Avena fatua • MATIN Matricaria inodora • POLCO Fallopia convolvulus • VERPE Veronica persica 1. Pre-emergence Herbicidal Action Against Harmful Plants Seeds” for “Seeds”

For assay [9], the system named is Amaranthus retroflexus. Described as above. Conditions: 504 h, dosage 320 g/ha, visual assessment after 3 weeks (Table C), read-out: Herbicidal action against AMARE.
From the text: as §2, with “The abbreviations used in the tables below denote: • ABUTH Abutilon theophrasti • AMARE Amaranthus retroflexus • ECHCG Echinochloa crus galli • PHBPU Phartoitis purpureum • STEME Stellaria media • ALOMY Alopecurus myosuroides • AVEFA Avena fatua • MATIN Matricaria inodora • POLCO Fallopia convolvulus • VERPE Veronica persica 1. Pre-emergence Herbicidal Action Against Harmful Plants Seeds” for “Seeds”

Assay [10] deals with Stellaria media. Described as above. To be noted: 504 h, read-out: Herbicidal action against STEME.
From the text: as §2, with “The abbreviations used in the tables below denote: • ABUTH Abutilon theophrasti • AMARE Amaranthus retroflexus • ECHCG Echinochloa crus galli • PHBPU Phartoitis purpureum • STEME Stellaria media • ALOMY Alopecurus myosuroides • AVEFA Avena fatua • MATIN Matricaria inodora • POLCO Fallopia convolvulus • VERPE Veronica persica 1. Pre-emergence Herbicidal Action Against Harmful Plants Seeds” for “Seeds”

Assay [11] concerns Matricaria inodora. The assay is described as above. To be noted: dosage 320 g/ha.
From the text: as §2, with “The abbreviations used in the tables below denote: • ABUTH Abutilon theophrasti • AMARE Amaranthus retroflexus • ECHCG Echinochloa crus galli • PHBPU Phartoitis purpureum • STEME Stellaria media • ALOMY Alopecurus myosuroides • AVEFA Avena fatua • MATIN Matricaria inodora • POLCO Fallopia convolvulus • VERPE Veronica persica 1. Pre-emergence Herbicidal Action Against Harmful Plants Seeds” for “Seeds”

Assay [12] has as its system Veronica persica. Briefly: Post-emergence herbicidal action against harmful plants. Conditions: 504 h, dosage 20 g/ha, visual rating after about 3 weeks (Table F), read-out: Herbicidal action against VERPE.
From the text: as §1, with “The abbreviations used in the tables below denote: • ABUTH Abutilon theophrasti • AMARE Amaranthus retroflexus • ECHCG Echinochloa crus galli • PHBPU Phartoitis purpureum • STEME Stellaria media • ALOMY Alopecurus myosuroides • AVEFA Avena fatua • MATIN Matricaria inodora • POLCO Fallopia convolvulus • VERPE Veronica persica 1. Pre-emergence Herbicidal Action Against Harmful Plants Seeds” for “Seeds”

The subject of assay [13] is Amaranthus retroflexus. The assay is described as above. To be noted: 504 h, dosage 20 g/ha, visual rating after about 3 weeks (Table F), read-out: Herbicidal action against AMARE.
From the text: as §1, with “The abbreviations used in the tables below denote: • ABUTH Abutilon theophrasti • AMARE Amaranthus retroflexus • ECHCG Echinochloa crus galli • PHBPU Phartoitis purpureum • STEME Stellaria media • ALOMY Alopecurus myosuroides • AVEFA Avena fatua • MATIN Matricaria inodora • POLCO Fallopia convolvulus • VERPE Veronica persica 1. Pre-emergence Herbicidal Action Against Harmful Plants Seeds” for “Seeds”

The test system of assay [14] is Stellaria media. The description is as above. Conditions: 504 h, dosage 20 g/ha, visual rating after about 3 weeks (Table F), read-out: Herbicidal action against STEME.
From the text: as §1, with “The abbreviations used in the tables below denote: • ABUTH Abutilon theophrasti • AMARE Amaranthus retroflexus • ECHCG Echinochloa crus galli • PHBPU Phartoitis purpureum • STEME Stellaria media • ALOMY Alopecurus myosuroides • AVEFA Avena fatua • MATIN Matricaria inodora • POLCO Fallopia convolvulus • VERPE Veronica persica 1. Pre-emergence Herbicidal Action Against Harmful Plants Seeds” for “Seeds”

Where [15] appears, read: dosage 80 g/ha, visual rating after about 3 weeks (Table E).
[16] abbreviates: dosage 320 g/ha, visual assessment after 3 weeks (Table C).
Setting [17] is: visual assessment after 3 weeks (Table C).
Setting [18] is: dosage 20 g/ha, visual rating after about 3 weeks (Table F).
Setting [19] is: dosage 80 g/ha, visual assessment after 3 weeks (Table B).

For the molecule `CCS(=O)(=O)c1ccc(C(=O)C2=C(O)CCCC2=O)c(C(F)(F)F)c1OCC(=O)N(C)OC` [Compound E8], the “Herbicidal action against VIOTR” value came to 90% in the assay on VIOTR [1] (setting [15]) and 100% in the assay on VIOTR [5] (setting [16]). Moreover, the pest or weed control at 80 g/ha with Echinochloa crus galli [2] was found to be 90%; in the assay with Phartoitis purpureum [3] (setting [15]), 80%; with Fallopia convolvulus, 90%; in the assay on Matricaria inodora [4] (setting [15]) it was 90%. In the assay on SETVI, the “Herbicidal action against SETVI” value is reported as 90%. Moreover, the pest or weed control at 320 g/ha is 100% with Veronica persica [6]; 100% in the assay on Abutilon theophrasti (Abutilon theophrasti, 504 h, dosage 320 g/ha, visual assessment after 3 weeks (Table A), read-out: Herbicidal action against ABUTH); 100% in the assay on Echinochloa crus galli [7] (Echinochloa, 504 h, visual assessment after 3 weeks (Table A), read-out: Herbicidal action against ECHCG); 100% in the assay with Amaranthus retroflexus [9]; 100% in the assay on Stellaria media [10] (dosage 320 g/ha, visual assessment after 3 weeks (Table A)); 100% in the assay on Matricaria inodora [11] (Tripleurospermum inodorum, 504 h, visual assessment after 3 weeks (Table A), read-out: Herbicidal action against MATIN). Also, the “Herbicidal action against ABUTH” value in the assay on Abutilon theophrasti (setting [16]) was found to be 100%. Further, the “Herbicidal action against ECHCG” value with Echinochloa crus galli [7] (setting [17]) stood at 100%. The “Herbicidal action against PHPBU” value in the assay on Phartoitis purpureum [8] is listed as 90%. The “Herbicidal action against MATIN” value in the assay on Matricaria inodora [11] (setting [17]) was determined as 100%.
On to `CCS(=O)(=O)c1ccc(C(=O)C2=C(O)CCCC2=O)c(C(F)(F)F)c1OC(C)C(=O)NC` (centres unmarked) [Compound E11], for which the “Herbicidal action against VIOTR” value in the assay with VIOTR [1] (setting [18]) is reported as 100%; with VIOTR [5] (setting [19]), 90%. Further, the pest or weed control at 20 g/ha was determined as 100% with Veronica persica [12]; 80% in the assay on Phartoitis purpureum [3] (setting [18]); 100% with Amaranthus retroflexus [13]; 90% in the assay on Stellaria media [14]; 90% in the assay on Matricaria inodora [4] (setting [18]). The pest or weed control at 80 g/ha in the assay with Abutilon theophrasti (Abutilon theophrasti, 504 h, dosage 80 g/ha, visual assessment after 3 weeks (Table B), read-out: Herbicidal action against ABUTH) came out at 90%; with Stellaria media [10] (setting [19]) it was 70%.

These data come from patent US8557741B2, “3-aminocarbonyl-substituted benzoylcyclohexanediones and their use as herbicides” (Bayer CropScience AG, priority 2010, dated 2013).
